The source of these data is ChEMBL document CHEMBL3870316, “Design, synthesis and structure-activity relationships of novel 4-phenoxyquinoline derivatives containing 1,2,4-triazolone moiety as c-Met kinase inhibitors” (Eur J Med Chem, 2016).

The species entered for test [1] is Homo sapiens. Nature of the test: Selectivity ratio of IC50 for VEGFR2 (unknown origin) to IC50 for c-MET (unknown origin).
Test [2] has as its system HT-29. Nature of the test: Potency index, ratio of foretinib IC50 to compound IC50 for human HT-29 cells. The test is classed as functional.
The subject of test [3] is A549. Nature of the test: Potency index, ratio of foretinib IC50 to compound IC50 for human A549 cells. The test is classed as functional.
A short description of test [4]: Cytotoxicity against c-Met over-expressed human A549 cells assessed as cell growth inhibition after 72 hrs by MTT assay. The conditions noted are these: A549, 72 h. On the technique in general: Formazan colour is commonly taken as a measure of viable cells.
The nature of test [5]: Cytotoxicity against c-Met over-expressed human MKN45 cells assessed as cell growth inhibition after 72 hrs by MTT assay. Conditions: MKN-45, 72 h.
Test [6] has as its target Hepatocyte growth factor receptor (Homo sapiens, UniProt P08581). Nature of the test: Inhibition of c-MET (unknown origin) using poly(Glu, Tyr)4:1 as substrate after 30 mins by HTRF assay. In general terms: TR-FRET usually uses a lanthanide donor and a delayed reading to cut background.
Test [7] has as its target Macrophage-stimulating protein receptor (Homo sapiens, UniProt Q04912). Nature of the test: Inhibition of Ron (unknown origin) after 30 mins by HTRF assay.
Test [8] in a line: Cytotoxicity against c-Met over-expressed human H460 cells assessed as cell growth inhibition after 72 hrs by MTT assay. The conditions noted are these: NCI-H460, 72 h.
In test [9] the target is T1, Receptor-type tyrosine-protein kinase FLT3 (Homo sapiens, UniProt P36888).
T1 sequence (P36888 whole entry): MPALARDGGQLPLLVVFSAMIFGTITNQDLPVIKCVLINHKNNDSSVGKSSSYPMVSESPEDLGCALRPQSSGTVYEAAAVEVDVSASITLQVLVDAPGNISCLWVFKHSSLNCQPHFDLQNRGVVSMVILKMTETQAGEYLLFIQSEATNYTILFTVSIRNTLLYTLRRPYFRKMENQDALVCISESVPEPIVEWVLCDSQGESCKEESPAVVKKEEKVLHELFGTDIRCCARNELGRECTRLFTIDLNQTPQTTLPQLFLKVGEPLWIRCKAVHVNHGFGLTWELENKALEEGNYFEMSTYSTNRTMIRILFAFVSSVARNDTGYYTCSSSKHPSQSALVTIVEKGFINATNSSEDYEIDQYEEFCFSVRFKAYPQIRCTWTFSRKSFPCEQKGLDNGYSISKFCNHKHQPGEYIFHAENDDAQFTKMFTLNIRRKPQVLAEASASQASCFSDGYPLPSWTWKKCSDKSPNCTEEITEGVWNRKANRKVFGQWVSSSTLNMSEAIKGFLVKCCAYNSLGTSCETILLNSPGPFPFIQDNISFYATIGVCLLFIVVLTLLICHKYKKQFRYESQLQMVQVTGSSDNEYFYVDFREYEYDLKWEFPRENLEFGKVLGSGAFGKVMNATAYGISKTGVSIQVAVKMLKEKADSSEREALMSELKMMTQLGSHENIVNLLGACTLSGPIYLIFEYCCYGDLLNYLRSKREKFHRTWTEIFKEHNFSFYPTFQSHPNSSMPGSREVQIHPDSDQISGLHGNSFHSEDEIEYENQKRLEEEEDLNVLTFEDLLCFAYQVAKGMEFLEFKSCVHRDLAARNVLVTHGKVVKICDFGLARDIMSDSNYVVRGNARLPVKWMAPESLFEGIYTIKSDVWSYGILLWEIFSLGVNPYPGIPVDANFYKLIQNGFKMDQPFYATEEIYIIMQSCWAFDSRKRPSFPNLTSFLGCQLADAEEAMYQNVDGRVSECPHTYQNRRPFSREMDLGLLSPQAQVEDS
Nature of the test: Inhibition of FLT3 (unknown origin) after 30 mins by HTRF assay.

Test [10] in a line: Cytotoxicity against c-Met over-expressed human HT-29 cells assessed as cell growth inhibition after 72 hrs by MTT assay. Conditions: HT-29, 72 h.
In test [11] the target is Platelet-derived growth factor receptor alpha (Homo sapiens, UniProt P16234). Put plainly: Inhibition of PDGFRalpha (unknown origin) after 30 mins by HTRF assay.
Chain of Platelet-derived growth factor receptor alpha (P16234 whole entry): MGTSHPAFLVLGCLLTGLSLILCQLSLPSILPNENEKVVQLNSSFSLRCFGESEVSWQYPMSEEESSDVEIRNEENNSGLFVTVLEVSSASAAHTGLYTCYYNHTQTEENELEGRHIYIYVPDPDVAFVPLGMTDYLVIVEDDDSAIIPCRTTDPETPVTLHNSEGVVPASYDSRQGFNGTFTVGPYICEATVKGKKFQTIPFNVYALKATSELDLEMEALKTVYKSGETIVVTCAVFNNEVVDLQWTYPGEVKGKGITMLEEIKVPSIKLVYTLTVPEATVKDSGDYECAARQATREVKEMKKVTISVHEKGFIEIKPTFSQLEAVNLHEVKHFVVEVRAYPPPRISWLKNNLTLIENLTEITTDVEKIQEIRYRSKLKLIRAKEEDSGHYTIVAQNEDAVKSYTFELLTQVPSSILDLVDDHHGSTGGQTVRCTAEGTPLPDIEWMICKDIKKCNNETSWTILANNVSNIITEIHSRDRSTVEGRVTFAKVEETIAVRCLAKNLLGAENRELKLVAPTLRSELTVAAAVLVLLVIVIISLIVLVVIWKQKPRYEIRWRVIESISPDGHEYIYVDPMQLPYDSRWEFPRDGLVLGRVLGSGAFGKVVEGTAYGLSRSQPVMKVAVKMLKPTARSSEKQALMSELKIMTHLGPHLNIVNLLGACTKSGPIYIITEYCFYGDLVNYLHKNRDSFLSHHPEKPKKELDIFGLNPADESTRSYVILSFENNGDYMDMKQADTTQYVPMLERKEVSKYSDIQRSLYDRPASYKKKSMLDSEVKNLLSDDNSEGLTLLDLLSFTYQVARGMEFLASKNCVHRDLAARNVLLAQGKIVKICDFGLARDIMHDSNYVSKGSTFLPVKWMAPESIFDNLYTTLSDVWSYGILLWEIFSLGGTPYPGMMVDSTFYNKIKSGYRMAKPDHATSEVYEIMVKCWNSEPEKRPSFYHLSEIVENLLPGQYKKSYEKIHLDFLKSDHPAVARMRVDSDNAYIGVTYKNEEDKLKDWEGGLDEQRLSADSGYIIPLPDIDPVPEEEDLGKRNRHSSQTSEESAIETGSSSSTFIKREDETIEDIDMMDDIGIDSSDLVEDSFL
Test [12] has as its target Mast/stem cell growth factor receptor Kit (Homo sapiens, UniProt P10721). Put plainly: Inhibition of c-Kit (unknown origin) after 30 mins by HTRF assay.
Test [13] concerns the target Epidermal growth factor receptor (Homo sapiens, UniProt P00533). Put plainly: Inhibition of EGFR (unknown origin) after 30 mins by HTRF assay.
In test [14] the target is Vascular endothelial growth factor receptor 2 (Homo sapiens, UniProt P35968). Put plainly: Inhibition of VEGFR2 (unknown origin) after 30 mins by HTRF assay.
Chain of Vascular endothelial growth factor receptor 2 (P35968 whole entry): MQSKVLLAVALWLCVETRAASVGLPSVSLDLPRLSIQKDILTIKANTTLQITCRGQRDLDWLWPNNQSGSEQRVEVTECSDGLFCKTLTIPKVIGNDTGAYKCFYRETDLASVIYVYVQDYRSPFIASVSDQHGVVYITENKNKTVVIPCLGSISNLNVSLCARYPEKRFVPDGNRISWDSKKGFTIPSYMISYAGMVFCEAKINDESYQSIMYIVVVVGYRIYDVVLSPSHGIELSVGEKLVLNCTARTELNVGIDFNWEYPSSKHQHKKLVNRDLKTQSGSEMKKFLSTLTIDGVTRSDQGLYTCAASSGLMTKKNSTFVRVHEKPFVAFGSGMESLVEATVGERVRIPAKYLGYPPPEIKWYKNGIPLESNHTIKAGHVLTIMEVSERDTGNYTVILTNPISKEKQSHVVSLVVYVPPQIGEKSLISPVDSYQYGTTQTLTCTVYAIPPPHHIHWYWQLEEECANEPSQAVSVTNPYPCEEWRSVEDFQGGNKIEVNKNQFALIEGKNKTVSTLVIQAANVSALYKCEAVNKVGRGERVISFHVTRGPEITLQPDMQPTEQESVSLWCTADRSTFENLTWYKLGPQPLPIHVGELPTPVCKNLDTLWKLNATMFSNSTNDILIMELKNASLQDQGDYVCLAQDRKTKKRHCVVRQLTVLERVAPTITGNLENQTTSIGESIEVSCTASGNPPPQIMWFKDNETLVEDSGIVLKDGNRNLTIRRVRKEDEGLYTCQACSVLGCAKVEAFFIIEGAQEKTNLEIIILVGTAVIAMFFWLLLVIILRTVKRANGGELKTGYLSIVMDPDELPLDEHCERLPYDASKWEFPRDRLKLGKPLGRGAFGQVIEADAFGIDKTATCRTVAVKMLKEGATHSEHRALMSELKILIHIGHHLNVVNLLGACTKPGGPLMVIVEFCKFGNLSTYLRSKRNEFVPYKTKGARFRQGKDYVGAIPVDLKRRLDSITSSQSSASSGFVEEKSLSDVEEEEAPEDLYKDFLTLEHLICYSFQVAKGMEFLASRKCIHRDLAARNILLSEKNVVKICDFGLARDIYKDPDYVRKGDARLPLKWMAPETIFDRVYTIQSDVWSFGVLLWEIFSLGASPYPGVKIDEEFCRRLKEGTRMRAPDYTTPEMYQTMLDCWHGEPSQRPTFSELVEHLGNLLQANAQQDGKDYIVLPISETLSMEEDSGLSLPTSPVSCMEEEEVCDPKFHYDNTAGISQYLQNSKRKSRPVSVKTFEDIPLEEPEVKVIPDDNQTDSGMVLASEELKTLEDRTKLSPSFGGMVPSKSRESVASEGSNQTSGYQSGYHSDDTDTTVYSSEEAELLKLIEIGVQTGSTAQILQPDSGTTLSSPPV
Test [15] can be described thus: Potency index, ratio of foretinib IC50 to compound IC50 for human H460 cells. The test is classed as functional.
Test [16] relates to MKN-45. Nature of the test: Potency index, ratio of foretinib IC50 to compound IC50 for human MKN45 cells. The test is classed as functional.

Chain of Hepatocyte growth factor receptor (P08581 whole entry): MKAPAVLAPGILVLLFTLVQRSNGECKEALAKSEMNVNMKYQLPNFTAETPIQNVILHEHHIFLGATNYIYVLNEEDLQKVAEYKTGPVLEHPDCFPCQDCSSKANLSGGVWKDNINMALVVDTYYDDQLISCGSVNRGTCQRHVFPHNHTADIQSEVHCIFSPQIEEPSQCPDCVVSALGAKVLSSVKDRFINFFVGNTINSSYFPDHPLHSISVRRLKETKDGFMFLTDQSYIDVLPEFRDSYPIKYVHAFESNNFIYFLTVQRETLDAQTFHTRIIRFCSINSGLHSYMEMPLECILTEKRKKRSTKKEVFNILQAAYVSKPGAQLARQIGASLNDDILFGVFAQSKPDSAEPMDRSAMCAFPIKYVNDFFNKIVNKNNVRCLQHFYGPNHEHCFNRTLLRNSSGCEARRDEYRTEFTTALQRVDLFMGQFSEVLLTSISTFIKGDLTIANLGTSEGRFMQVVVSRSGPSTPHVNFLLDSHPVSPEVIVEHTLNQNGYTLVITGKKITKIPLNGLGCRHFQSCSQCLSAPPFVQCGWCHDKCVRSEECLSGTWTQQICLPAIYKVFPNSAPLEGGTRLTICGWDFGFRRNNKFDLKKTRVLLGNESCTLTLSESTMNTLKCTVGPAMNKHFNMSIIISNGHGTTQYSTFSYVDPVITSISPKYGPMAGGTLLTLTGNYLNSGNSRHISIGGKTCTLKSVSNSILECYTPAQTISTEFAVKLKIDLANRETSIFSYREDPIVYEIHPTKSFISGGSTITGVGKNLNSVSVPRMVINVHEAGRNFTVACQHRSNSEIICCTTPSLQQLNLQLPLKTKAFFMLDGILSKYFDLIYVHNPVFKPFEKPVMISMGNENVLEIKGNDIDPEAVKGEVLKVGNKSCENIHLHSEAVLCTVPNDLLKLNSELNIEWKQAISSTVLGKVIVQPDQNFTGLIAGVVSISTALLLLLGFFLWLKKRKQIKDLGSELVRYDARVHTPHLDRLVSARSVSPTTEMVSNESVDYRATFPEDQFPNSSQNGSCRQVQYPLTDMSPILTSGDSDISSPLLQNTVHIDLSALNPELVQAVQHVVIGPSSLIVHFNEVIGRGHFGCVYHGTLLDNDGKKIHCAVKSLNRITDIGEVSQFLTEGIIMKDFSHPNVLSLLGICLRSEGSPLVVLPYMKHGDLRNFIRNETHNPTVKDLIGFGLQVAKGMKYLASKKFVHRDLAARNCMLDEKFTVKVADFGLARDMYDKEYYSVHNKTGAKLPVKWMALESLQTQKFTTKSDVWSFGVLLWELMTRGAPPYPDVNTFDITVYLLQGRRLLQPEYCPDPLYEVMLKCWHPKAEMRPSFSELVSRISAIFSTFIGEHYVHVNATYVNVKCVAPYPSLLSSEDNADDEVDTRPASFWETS
Chain of Mast/stem cell growth factor receptor Kit (P10721 whole entry): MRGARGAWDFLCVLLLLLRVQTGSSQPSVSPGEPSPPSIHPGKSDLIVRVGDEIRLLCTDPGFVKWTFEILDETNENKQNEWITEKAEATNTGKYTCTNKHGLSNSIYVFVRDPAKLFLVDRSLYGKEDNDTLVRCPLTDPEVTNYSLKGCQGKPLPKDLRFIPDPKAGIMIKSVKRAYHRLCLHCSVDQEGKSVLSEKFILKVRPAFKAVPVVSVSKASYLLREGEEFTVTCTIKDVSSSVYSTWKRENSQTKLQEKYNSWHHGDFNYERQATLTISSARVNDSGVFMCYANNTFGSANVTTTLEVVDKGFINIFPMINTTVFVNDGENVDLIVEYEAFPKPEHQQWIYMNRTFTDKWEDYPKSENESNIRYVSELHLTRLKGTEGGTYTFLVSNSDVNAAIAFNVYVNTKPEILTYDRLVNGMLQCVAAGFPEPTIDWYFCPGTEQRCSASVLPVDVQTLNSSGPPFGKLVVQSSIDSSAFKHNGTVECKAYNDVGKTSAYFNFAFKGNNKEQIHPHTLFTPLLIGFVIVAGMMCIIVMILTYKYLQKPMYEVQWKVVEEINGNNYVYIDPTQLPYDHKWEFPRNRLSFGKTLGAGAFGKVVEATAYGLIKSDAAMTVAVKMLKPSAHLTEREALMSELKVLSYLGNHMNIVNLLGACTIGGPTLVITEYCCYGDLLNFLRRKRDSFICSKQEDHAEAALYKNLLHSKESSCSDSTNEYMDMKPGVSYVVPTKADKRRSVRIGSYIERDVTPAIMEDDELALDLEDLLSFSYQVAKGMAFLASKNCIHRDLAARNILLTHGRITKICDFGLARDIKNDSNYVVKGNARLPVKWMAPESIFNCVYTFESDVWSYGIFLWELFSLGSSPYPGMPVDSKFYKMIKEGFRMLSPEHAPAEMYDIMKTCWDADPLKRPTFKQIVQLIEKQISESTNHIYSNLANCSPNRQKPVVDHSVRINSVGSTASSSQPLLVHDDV

As to `COc1cc2c(Oc3ccc(N/C=C4\C(=O)N(c5ccccc5C(F)(F)F)N=C4C)cc3F)ccnc2cc1OCCCN1CCOCC1`, in [1], the Ratio IC50 was found to be 172.

One may read the IC50 as the concentration at which inhibition is half-maximal. With `COc1cc2c(Oc3ccc(NC(=O)c4nn(-c5ccccc5F)c(=O)n4C)cc3F)ccnc2cc1OCCCN1CCN(C)CC1`, the “Ratio IC50” value is 1.1 - 2.3 in [2]; 1.1 - 2.3 in test [3]; 306 in test [1]; 1.1 - 2.3 in test [15]; 1.1 - 2.3 in test [16]. The concentration for half-maximal inhibition (IC50) was found to be 110 nM in [4]; 30 nM in test [5]; 1.57 nM in [6]; 141 nM in test [7]; 140 nM in test [8]; 8.19 nM in test [9]. Besides, the IC50 in test [10] was 80 nM; in [11] it was 95.2 nM; in test [12], 3.38 nM; in [13], over 10000 nM; in [14], 480 nM.

On to `COc1cc2c(Oc3ccc(NC(=O)c4nn(-c5ccccc5OC(F)(F)F)c(=O)n4C)cc3F)ccnc2cc1OCCCN1CCN(C)CC1`, for which the half-maximal inhibitory concentration (IC50) in [4] turned out to be 90 nM; in test [5] it was 20 nM; in [8] it was 200 nM; in test [10], 180 nM.

On to `COc1cc2c(Oc3ccc(NC(=O)c4nn(-c5ccccc5Cl)c(=O)n4C)cc3F)ccnc2cc1OCCCN1CCCCC1`, for which the 50% inhibitory concentration (IC50) in test [4] is 190 nM; in test [5] it was 220 nM; in [8], 300 nM; in test [10], 180 nM.

For `COc1cc2c(Oc3ccc(NC(=O)c4nn(-c5ccccc5)c(=O)n4C)cc3F)ccnc2cc1OCCCN1CCOCC1`, the half-inhibitory concentration (IC50) in [4] amounted to 700 nM; in [5], 950 nM; in [8], 1700 nM; in test [10] it was 1460 nM.

`COc1cc2c(Oc3ccc(NC(=O)c4nn(-c5c(C)cccc5C)c(=O)n4C)cc3F)ccnc2cc1OCCCN1CCN(C)CC1`: the IC50 in [4] worked out at 980 nM; in test [5] it was 1660 nM; in test [8], 2400 nM; in [10], 1260 nM.

Regarding `COc1cc2c(Oc3ccc(NC(=O)c4nn(-c5ccccc5)c(=O)n4C)cc3F)ccnc2cc1OCCCN1CCCC1`, the IC50 stood at 990 nM in test [4], 1160 nM in test [5], 1300 nM in test [8] and 1450 nM in test [10].

`COc1cc2c(Oc3ccc(NC(=O)c4cn(-c5ccccc5Cl)nn4)cc3F)ccnc2cc1OCCCN1CCCCC1`: in [1], the Ratio IC50 is 53.

For `COc1cc2c(Oc3ccc(NC(=O)c4nn(-c5cccc(F)c5)c(=O)n4C)cc3F)ccnc2cc1OCCCN1CCC(C)CC1`, the half-inhibitory concentration (IC50) in [4] was 440 nM; in test [5], 200 nM; in test [8] it was 290 nM; in [10] it was 400 nM.

For `COc1cc2c(Oc3ccc(NC(=O)c4nn(-c5ccccc5F)c(=O)n4C)cc3F)ccnc2cc1OCCCN1CCC(C)CC1`, the half-inhibitory concentration (IC50) in test [4] turned out to be 120 nM; in test [5], 190 nM; in [8] it was 250 nM; in [10], 110 nM.

As for `COc1ccc(-n2nc(C(=O)Nc3ccc(Oc4ccnc5cc(OCCCN6CCN(C)CC6)c(OC)cc45)c(F)c3)n(C)c2=O)cc1`, the IC50 turned out to be 720 nM in test [4], 1650 nM in test [5], 2140 nM in [8] and 1280 nM in test [10].

For the compound `COc1cc2c(Oc3ccc(NC(=O)c4nn(-c5ccc(F)cc5)c(=O)n4C)cc3F)ccnc2cc1OCCCN1CCCC1`, the concentration for half-maximal inhibition (IC50) in [4] was found to be 680 nM; in test [5], 760 nM; in test [8], 730 nM; in test [10], 970 nM.

`COc1cc2c(Oc3ccc(NC(=O)c4nn(-c5ccccc5)c(=O)n4C)cc3F)ccnc2cc1OCCCN1CCN(C)CC1`: the half-inhibitory concentration (IC50) in test [4] stood at 460 nM; in [5], 560 nM; in test [8], 620 nM; in [10], 650 nM.

Take `COc1cc2c(Oc3ccc(NC(=O)c4nn(-c5ccc(OC(F)F)cc5)c(=O)n4C)cc3F)ccnc2cc1OCCCN1CCCCC1`: the IC50 in test [4] was determined as 220 nM; in [5] it was 130 nM; in test [8], 310 nM; in [10], 280 nM.

In the case of `COc1cc2c(Oc3ccc(NC(=O)c4nn(-c5ccc(F)cc5)c(=O)n4C)cc3F)ccnc2cc1OCCCN1CCN(C)CC1`, the IC50 came to 240 nM in [4], 350 nM in test [5], 370 nM in test [8] and 250 nM in [10].

Take `COc1cc2c(Oc3ccc(NC(=O)c4nn(-c5ccc(Cl)cc5Cl)c(=O)n4C)cc3F)ccnc2cc1OCCCN1CCCCC1`: the 50% inhibitory concentration (IC50) in test [4] was found to be 320 nM; in [5], 290 nM; in [8] it was 380 nM; in test [10] it was 340 nM.
